The values that follow come from US9279010B2, “Treatment of inflammatory bowel diseases with mammal beta defensins” (Defensin Therapeutics ApS, priority 2008, dated 2016).

Where no end group is shown, it is not given here.

The subject of series [1] is human PBMC. Kind of series: IL-23 in supernatants of human PBMC, ELISA (Example 6, Table 25). In kind it is cell-based. On the procedure: (§1) Peripheral blood was drawn from healthy volunteers (with approval from the relevant ethical committee in Denmark). Heparinized blood was diluted 1/1 v/v with RPMI and were subjected to Ficoll density centrifugation within 2 h of drawing. Plasma was collected from the top from individual donors and was kept on ice until it was used at 2% in the culture medium (autologous culture medium). Isolated PBMC were resuspended in autologous culture medium and seeded in 96-well culture plates with 255.000 cells per well in a total of 200 μl. […] The concentrations used for stimulation were optimized on 3 different donors in initial experiments, for LPS two different concentrations were used to be sure to be on a cytokine level that is possible to modulate. In some experiments PBMC were treated with Dexamethason and Indomethacin alone and together with LPS or LTA as a control on downregulation of inflammatory cytokines. The supernatants were collected after incubation at 37° C. for 24 hours, and stored at −80° C. until cytokine measurement. Viability was measured by Alamar Blue (Biosource, DALL 1100) in all experiments and in some cases also by MTS (Promega) according to manufacturer's instruction and was in some experiments also judged by counting of the cells by a Nucleocounter.
Example 6 was carried out essentially as described in Example 4 for human PBMCs; however, the readout was IL-23 instead of TNF, IL-1β and IL-10. Moreover, the effect of rhBD2 on human monocyte-derived dendritic cells was also investigated.
Cell culture supernatants were collected and stored at −80° C. Amounts of IL-23 was measured by standard sandwich ELISA using commercially available antibodies and standards according to the manufacturer's protocols (eBioscience).
All experiments were performed at least twice, with representative results shown. The data presented are expressed as mean plus/minus standard deviation […]. […] Differences were considered significant for p<0.05.
On the technique in general: ELISA stands for enzyme-linked immunosorbent assay.

The subject of series [2] is human peripheral blood mononuclear cells (PBMC). Kind of series: TNF production from LPS-treated human PBMC, CBA (Example 5). Format: cell-based. The following applies: Table 21. On the procedure:
as §1
(§2) Cytokine production in supernatants was measured by flow cytometry with a human inflammation cytometric bead array (CBA) according to manufacturer's instructions (BD) on a FACSarray flow cytometer. The following cytokines were measured: IL-8, IL-1β, IL-10, TNF, IL-12 p70, IL-6. In some experiments, cytokines were measured by ELISA kits from R&D systems (IL-10, TNF-α, IL-1β) according to the manufacturer′ instruction.
(§3) Example 5 was carried out essentially as described in Example 4.
(§4) In each table, all samples were tested on the same donor. SD means standard deviation.

Series [3] has as its system mouse peripheral blood mononuclear cells (PBMC). Kind of series: TNF production from LPS-treated mouse PBMC, CBA (Example 7). In kind it is cell-based, mouse (NMRI). On the procedure: (§5) Example 7 was carried out essentially as described in Example 4 for human PBMCs. […] The amino acid sequence of mBD3 is shown in SEQ ID NO:6. Mouse PBMCs were prepared as described below.
Mouse peripheral blood mononuclear cells were isolated from blood of ten NMRI mice. In short, heparinized blood was diluted 1/1 v/v with RPMI and subjected to Ficoll density centrifugation within 2 h of drawing. Plasma was collected from the top and discarded. Isolated PBMC were resuspended in culture medium (RPMI 1640 (Gibco, 42401) w/ 1% penicillin and streptomycin and 1% L-Glutamine) and seeded in 96-well culture plates with 115.500 cells per well in a total of 200 μl. […] The supernatants were collected after incubation at 37° C. for 24 hours, and stored at −80° C. until cytokine measurement.
Cytokine production in supernatants was measured by flow cytometry with a mouse inflammation cytometric bead array (CBA) according to manufacturer's instructions (BD) on a FACSarray flow cytometer.

Series [4] deals with human peripheral blood mononuclear cells (PBMC). Kind of series: IL-10 production from LPS-treated human PBMC, CBA (Example 5). Format: cell-based. The following applies: Table 22. The protocol:
as §1, §2, §4

Series [5] shares this test system. Kind of series: IL-1β production from LPS-treated human PBMC, CBA (Example 5, Table 23). In kind it is cell-based. The protocol: as §1, §2, §3, §4
Series [6] shares this test system. Kind of series: TNF production from LPS-treated human PBMC, CBA (Example 7, Table 26). In kind it is cell-based. The protocol: as §1, §2, §5
For series [7], the system named is human PBMC. Kind of series: Toxicity to human PBMC (Example 5). Format: cell-based. On the procedure: as §1, §3
The mark [8] stands for this setting: concentration not given, LPS 0.6 ng/ml.
Setting [9] is: concentration not given, LPS 20 ng/ml.
[10] abbreviates: concentration not given, Medium.
The mark [11] stands for this setting: LPS 0.6 ng/ml, concentration of test compound not given.
Setting [12] is: LPS 20 ng/ml, concentration of test compound not given.
Where [13] appears, read: LPS 0.6 ng/ml, test compound 1 μg/ml.
Setting [14] is: LPS 20 ng/ml, test compound 1 μg/ml.
Setting [15] is: Medium (no LPS), test compound 1 μg/ml.
[16] abbreviates: LPS 0.6 ng/ml, test compound 10 μg/ml.
The mark [17] stands for this setting: LPS 0.6 ng/ml, test compound 40 μg/ml.
The mark [18] stands for this setting: LPS 20 ng/ml, test compound 10 μg/ml.
[19] abbreviates: LPS 20 ng/ml, test compound 40 μg/ml.
Setting [20] is: Medium (no LPS), test compound 10 μg/ml.

Consider `C[C@@H]1C[C@H]2[C@@H]3CCC4=CC(=O)C=C[C@]4(C)[C@@]3(F)[C@@H](O)C[C@]2(C)[C@@]1(O)C(=O)CO` [Dexamethasone], for which the IL-23 pg/ml in the series on human PBMC [1] (Control (medium), test compound 3.5 ng/ml) was 222 pg/mL; with human PBMC [1] (LTA 5 μg/ml, test compound 3.5 ng/ml), 223 pg/mL.
On to “Infliximab: anti-inflammatory compound, positive control on downregulation of TNF [reference compound]”, for which the TNF is 0 pg/mL in series [2] (setting [8]); 0 pg/mL in series [2] (setting [9]); 0 pg/mL in series [2] (setting [10]); 2119 pg/mL in series [3] (1 μg/ml, LPS 20 ng/ml); 530 pg/mL in series [3] (1 μg/ml, Medium); 1 pg/mL in series [6] (setting [14]). Also, in series [6] (setting [15]), the TNF came out at 0 pg/mL. The “TNF % of control” value in series [2] (setting [8]) and in series [2] (setting [9]) was 0% in each case. In addition, the results for the IL-10 in series [4] (setting [8]), in series [4] (setting [9]) and in series [4] (setting [10]) were 46 pg/mL, 63 pg/mL and 0 pg/mL, respectively. The entries for the “IL-10 % of control” value in series [4] (setting [8]) and in series [4] (setting [9]) were 69% and 56%, respectively. Besides, the IL-1β in series [5] (setting [11]) came out at 636 pg/mL; in series [5] (setting [12]) it was 2704 pg/mL; in series [5] (Medium (no LPS), concentration of test compound not given) it was 0 pg/mL. Besides, the “IL-1β % of control” value in series [5] (setting [11]) is recorded as 86%; in series [5] (setting [12]) it was 106%. The IL-23 pg/ml turned out to be 227 pg/mL in the series on human PBMC [1] (Control (medium), test compound 1 μg/ml); 356 pg/mL in the series with human PBMC [1] (setting [13]); 373 pg/mL in the series with human PBMC [1] (setting [14]); 349 pg/mL with human PBMC [1] (LTA 5 μg/ml, test compound 1 μg/ml).
On to “hBD1: human beta defensin 1 (SEQ ID NO:1), prepared using chemical synthesis (DHYNCVSSGGQCLYSACPIFTKIQGTCYRGKAKCCK; not fully specified; cysteine pairing not given here; listed as Homo sapiens)”, for which the TNF in series [2] (1 μg/ml, LPS 0.6 ng/ml) stood at 474 pg/mL; in series [2] (1 μg/ml, LPS 20 ng/ml), 1395 pg/mL; in series [2] (1 μg/ml, Medium) it was 1 pg/mL; in series [2] (10 μg/ml, LPS 0.6 ng/ml) it was 203 pg/mL; in series [2] (10 μg/ml, LPS 20 ng/ml), 1311 pg/mL; in series [2] (10 μg/ml, Medium), 0 pg/mL. Also, the TNF in series [2] (40 μg/ml, LPS 0.6 ng/ml) is 91 pg/mL; in series [2] (40 μg/ml, LPS 20 ng/ml) it was 999 pg/mL; in series [2] (40 μg/ml, Medium) it was 0 pg/mL. Further, the “TNF % of control” value came to 65% in series [2] (1 μg/ml, LPS 0.6 ng/ml); 64% in series [2] (1 μg/ml, LPS 20 ng/ml); 28% in series [2] (10 μg/ml, LPS 0.6 ng/ml); 61% in series [2] (10 μg/ml, LPS 20 ng/ml); 13% in series [2] (40 μg/ml, LPS 0.6 ng/ml); 46% in series [2] (40 μg/ml, LPS 20 ng/ml). Also, the IL-10 in series [4] (1 μg/ml, LPS 0.6 ng/ml) came out at 71 pg/mL; in series [4] (1 μg/ml, LPS 20 ng/ml) it was 95 pg/mL; in series [4] (1 μg/ml, Medium) it was 0 pg/mL; in series [4] (10 μg/ml, LPS 0.6 ng/ml), 76 pg/mL; in series [4] (10 μg/ml, LPS 20 ng/ml), 100 pg/mL; in series [4] (10 μg/ml, Medium), 0 pg/mL. In addition, the IL-10 in series [4] (40 μg/ml, LPS 0.6 ng/ml) was 69 pg/mL; in series [4] (40 μg/ml, LPS 20 ng/ml), 113 pg/mL; in series [4] (40 μg/ml, Medium), 0 pg/mL. For the same molecule, the “IL-10 % of control” value was determined as 108% in series [4] (1 μg/ml, LPS 0.6 ng/ml); 85% in series [4] (1 μg/ml, LPS 20 ng/ml); 114% in series [4] (10 μg/ml, LPS 0.6 ng/ml); 90% in series [4] (10 μg/ml, LPS 20 ng/ml); 104% in series [4] (40 μg/ml, LPS 0.6 ng/ml); 102% in series [4] (40 μg/ml, LPS 20 ng/ml). For the same molecule, the IL-1β in series [5] (setting [13]) was found to be 512 pg/mL; in series [5] (setting [16]) it was 401 pg/mL; in series [5] (setting [17]), 302 pg/mL; in series [5] (setting [14]), 2087 pg/mL; in series [5] (setting [18]), 1913 pg/mL; in series [5] (setting [19]), 1599 pg/mL. Besides, the IL-1β was determined as 0 pg/mL in series [5] (setting [15]); 0 pg/mL in series [5] (setting [20]); 0 pg/mL in series [5] (Medium (no LPS), test compound 40 μg/ml). Also, the “IL-1β % of control” value in series [5] (setting [13]) is 69%; in series [5] (setting [16]), 54%; in series [5] (setting [17]), 41%; in series [5] (setting [14]) it was 82%; in series [5] (setting [18]) it was 75%; in series [5] (setting [19]) it was 63%.
Turning to “hBD3: human beta defensin 3 (SEQ ID NO:3), prepared using chemical synthesis”, the TNF in series [2] (1 μg/ml, LPS 0.6 ng/ml) was 528 pg/mL; in series [2] (1 μg/ml, LPS 20 ng/ml) it was 451 pg/mL; in series [2] (1 μg/ml, Medium), 0 pg/mL. The “TNF % of control” value came to 73% in series [2] (1 μg/ml, LPS 0.6 ng/ml) and 21% in series [2] (1 μg/ml, LPS 20 ng/ml). The IL-10 in series [4] (1 μg/ml, LPS 0.6 ng/ml) turned out to be 71 pg/mL; in series [4] (1 μg/ml, Medium) it was 0 pg/mL. The “IL-10 % of control” value in series [4] (1 μg/ml, LPS 0.6 ng/ml) was determined as 107%; in series [4] (1 μg/ml, LPS 20 ng/ml) it was 137%. The figures for the IL-1β in series [5] (setting [13]), in series [5] (setting [14]) and in series [5] (setting [15]) were 331 pg/mL, 568 pg/mL and 0 pg/mL, respectively. Besides, the “IL-1β % of control” value in series [5] (setting [13]) was 45%; in series [5] (setting [14]), 22%. The “toxicity to the cells” value with human PBMC [7] (10 μg/ml) and in the series on human PBMC [7] (40 μg/ml) was “toxic to the cells” each time.
For “mBD3: mouse beta defensin 3 (SEQ ID NO:6), prepared with the same protocol as hBD2 (KINNPVSCLRKGGRCWNRCIGNTRQIGSCGVPFLKCCKRK; mat_peptide (1)..(40); listed as Mus musculus)”, the TNF in series [3] (1 μg/ml, LPS 20 ng/ml) worked out at 1600 pg/mL; in series [3] (1 μg/ml, Medium), 347 pg/mL; in series [3] (10 μg/ml, LPS 20 ng/ml), 297 pg/mL; in series [3] (10 μg/ml, Medium), 180 pg/mL; in series [3] (100 μg/ml, LPS 20 ng/ml) it was 195 pg/mL; in series [3] (100 μg/ml, Medium) it was 182 pg/mL. The TNF in series [6] (setting [14]) is 384 pg/mL; in series [6] (setting [18]), 51 pg/mL; in series [6] (LPS 20 ng/ml, test compound 100 μg/ml), 166 pg/mL; in series [6] (setting [15]), 2 pg/mL; in series [6] (setting [20]) it was 2 pg/mL; in series [6] (Medium (no LPS), test compound 100 μg/ml) it was 39 pg/mL. In addition, the “secretion of TNF” value in series [6] (human PBMCs (Table 26)) is “downregulating the secretion of TNF from human PBMCs to the same extend as hBD2 and dexamethason”.
